This passage reports Ki results from BindingDB's records for patent US20250051323 (Richter Gedeon, 2025).

This experiment has as its target T1, GABA-A receptor; alpha-5/beta-3/gamma-2 (Homo sapiens, UniProt P18507+P28472+P31644).
T1 sequence (P31644 whole entry): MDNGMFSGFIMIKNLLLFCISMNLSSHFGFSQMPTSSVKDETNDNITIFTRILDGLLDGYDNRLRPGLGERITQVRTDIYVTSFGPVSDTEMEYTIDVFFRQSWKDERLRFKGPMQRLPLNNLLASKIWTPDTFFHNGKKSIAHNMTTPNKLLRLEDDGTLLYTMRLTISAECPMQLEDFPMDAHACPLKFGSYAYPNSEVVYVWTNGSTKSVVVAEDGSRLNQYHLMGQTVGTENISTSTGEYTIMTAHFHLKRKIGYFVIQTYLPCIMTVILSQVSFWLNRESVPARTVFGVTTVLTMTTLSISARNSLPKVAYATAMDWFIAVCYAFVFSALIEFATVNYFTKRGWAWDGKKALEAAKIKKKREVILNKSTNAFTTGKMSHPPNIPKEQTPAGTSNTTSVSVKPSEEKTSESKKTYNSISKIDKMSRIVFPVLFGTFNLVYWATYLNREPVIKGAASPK
T1 sequence (P18507 whole entry): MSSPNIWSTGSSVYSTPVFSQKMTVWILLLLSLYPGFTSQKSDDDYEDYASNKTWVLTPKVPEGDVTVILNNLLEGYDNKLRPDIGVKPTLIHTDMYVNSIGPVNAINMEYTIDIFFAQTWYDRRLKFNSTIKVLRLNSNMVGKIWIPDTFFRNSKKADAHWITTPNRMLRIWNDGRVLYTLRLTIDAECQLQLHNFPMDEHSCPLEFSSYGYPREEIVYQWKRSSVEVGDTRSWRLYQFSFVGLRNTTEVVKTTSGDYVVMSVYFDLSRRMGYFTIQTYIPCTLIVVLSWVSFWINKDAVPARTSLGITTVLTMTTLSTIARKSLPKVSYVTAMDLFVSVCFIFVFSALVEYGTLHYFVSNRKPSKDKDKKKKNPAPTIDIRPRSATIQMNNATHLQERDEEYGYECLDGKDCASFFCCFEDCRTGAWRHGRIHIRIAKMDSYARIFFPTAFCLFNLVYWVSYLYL
T1 sequence (P28472 whole entry): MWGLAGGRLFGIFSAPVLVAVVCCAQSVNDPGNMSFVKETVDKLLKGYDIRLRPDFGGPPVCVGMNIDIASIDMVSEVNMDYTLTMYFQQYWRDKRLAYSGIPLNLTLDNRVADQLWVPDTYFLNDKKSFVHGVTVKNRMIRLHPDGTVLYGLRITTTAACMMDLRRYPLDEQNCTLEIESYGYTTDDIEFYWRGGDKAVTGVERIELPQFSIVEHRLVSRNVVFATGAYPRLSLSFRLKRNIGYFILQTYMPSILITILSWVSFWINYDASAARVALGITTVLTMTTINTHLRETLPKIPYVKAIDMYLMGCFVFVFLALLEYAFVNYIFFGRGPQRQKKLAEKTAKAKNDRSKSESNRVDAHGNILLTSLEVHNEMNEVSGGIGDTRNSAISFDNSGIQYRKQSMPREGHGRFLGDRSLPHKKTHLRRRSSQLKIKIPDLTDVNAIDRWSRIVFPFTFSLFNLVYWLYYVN
Nature of the experiment: Binding Assay. The method, then: Receptor binding assays were performed in 96-well format in deep-well plates. For each 96-well plate one ampule of membrane homogenate was thawed and diluted in binding buffer (50 mM Tris pH=7.4, 100 mM KCl) and 200 μL was dispensed into each well. Radioligand [3H]Ro151788 (Perkin Elmer: NET757250UC) was prepared in binding buffer and added to each well in 50 μL volume to give final concentration of 0.5 nM. Test compounds in suitable concentration(s) were added in additional 50 μL. The final assay volume was 300 μL. Incubation was carried out for 60 minutes at 4° C. For non-specific binding 10 μM unlabeled diazepam was used. After incubation samples were filtered over UniFilter GF/B™ using Filtermate Harvester (Perkin Elmer) and washed with 5×1 mL binding buffer. The plate was dried at 40° C. for an hour and 40 μL Microscint (Perkin Elmer) scintillation cocktail was added to each well. The plate was read in Microbeta (Perkin Elmer).
The term Ki denotes a measure of affinity in units of concentration, obtained from inhibition or displacement. In turn, `CCC1(N2CCc3cc(OCc4c(C)nnn4-c4ccc(C)nc4)ncc3C2)COC1` [US20250051323, Example 43] gave a Ki of 19 nM.

As for `Cc1ccc(-n2nnc(C)c2COc2cc3c(cn2)CN(CC(C)C)CC3)cn1` [US20250051323, Example 41], the affinity corresponds to a Ki of 61.5 nM.

On to `Cc1onc(-c2ccc(C(F)(F)F)nc2)c1COc1cc2c(nn1)CN(C1CCOC1)CC2` (stereo not drawn) [US20250051323, Example 18], for which the affinity, expressed as Ki, was 12.7 nM.

Take `Cc1ccc(-c2noc(C)c2COc2cc3c(cn2)CN(C2CCC2)CC3)cn1` [US20250051323, Example 4]: the affinity corresponds to a Ki of 4.5 nM.

As for `COc1ccc(-n2nnc(C)c2COc2cc3c(cn2)CN(C2CCOCC2)CC3)cn1` [US20250051323, Example 40], the affinity corresponds to a Ki of 28.5 nM.

As for `Cc1nnn(-c2ccc(C(F)(F)F)nc2)c1COc1cc2c(cn1)CN(c1cccnc1)CC2` [US20250051323, Example 37], the Ki came to 37.9 nM.

In turn, `Cc1nnn(-c2ccc(C(F)(F)F)nc2)c1COc1cc2c(cn1)CN(CC1CCS(=O)(=O)C1)CC2` (stereo not drawn) [US20250051323, Example 36] came in with a Ki of 53.5 nM.

Turning to `Cc1ccc(-n2nnc(C)c2COc2cc3c(cn2)CN(C2(C(C)C)COC2)CC3)cn1` [US20250051323, Example 42], the Ki was determined as 28 nM.
